Laboratory results taken from ChEMBL document CHEMBL6109134, “Discovery of AMG 193, an MTA-Cooperative PRMT5 Inhibitor for the Treatment of MTAP-Deleted Cancers” (J Med Chem, 2025).
One block for each compound: values may come before it.

Tests used:
[1] = Metabolic stability in dog liver microsomes assessed as intrinsic clearance; assay type: ADME, Canis lupus familiaris, Microsome; details: read-out: CLH
[2] = Volume of distribution at steady state in Sprague-Dawley rat at 0.5 mg/kg, iv; details: in vivo
[3] = Metabolic stability in rat hepatocytes assessed as intrinsic clearance measured per 10^6 cells; assay type: ADME, cell-based, Hepatocyte; details: read-out: CLH
DOHH-2 = test: Antiproliferative activity against human DOHH-2 cells assessed as effect on cell viability; assay type: functional, cell-based
[4] = AUC (0 to t) in CD-1 mouse at 5 mg/kg, po administered as 1% Tween 80, 2% HPMC, 97% water/methane sulfonic acid, pH 2.0 formulation; assay type: ADME, organism-based; details: in vivo
HCT-116 [5] = test: Antiproliferative activity against human HCT-116 cells harboring wildtype MTAP assessed as effect on cell viability incubated for 6 days by Celltiter-Glo luminescent cell viability assay; assay type: functional, cell-based; details: HCT-116, 144 h
[6] = Metabolic stability in human hepatocytes assessed as intrinsic clearance measured per 10^6 cells; assay type: ADME, cell-based, Hepatocyte; details: read-out: CLH
[7] = Protein binding in human plasma assessed as unbound fraction by ultracentrifugation
[8] = Metabolic stability in human liver microsomes assessed as intrinsic clearance at 0.5 uM incubated for 40 mins in presence of NADPH; assay type: ADME, Microsome; details: read-out: CLH
[9] = Drug metabolism in mouse hepatocytes assessed as 3-methylquinoline ring system oxidation mediated metabolite formation; assay type: ADME, cell-based, Hepatocyte
[10] = Drug metabolism in human hepatocytes assessed as 3-methylquinoline ring system oxidation mediated metabolite formation; assay type: ADME, cell-based, Hepatocyte
[11] = Protein binding in dog plasma assessed as unbound fraction by ultracentrifugation
[12] = Half-life in Sprague-Dawley rat at 0.5 mg/kg, iv; assay type: ADME, organism-based; details: in vivo
HCT-116 [13] = test: Antiproliferative activity against MTAP-deleted human HCT-116 cells assessed as effect on cell viability incubated for 6 days by Celltiter-Glo luminescent cell viability assay; assay type: functional, cell-based; details: HCT-116, 144 h
[14] = Unbound clearance in CD-1 mouse at 1 mg/kg, iv; assay type: ADME, organism-based; details: in vivo
in vivo [15] = details: beagle, dog, iv, 0.5 mg/kg
[16] = Unbound clearance in Sprague-Dawley rat at 0.5 mg/kg, iv; assay type: ADME, organism-based; details: in vivo
[17] = Metabolic stability in dog hepatocytes assessed as intrinsic clearance measured per 10^6 cells; assay type: ADME, cell-based, Canis lupus familiaris, Hepatocyte; details: read-out: CLH
[18] = Clearance in Sprague-Dawley rat at 0.5 mg/kg, iv; details: in vivo
[19] = Metabolic stability in mouse liver microsomes assessed as intrinsic clearance at 0.5 uM incubated for 40 mins in presence of NADPH; assay type: ADME, Microsome; details: read-out: CLH
[20] = Unbound clearance in Beagle dog at 0.5 mg/kg, iv; assay type: ADME, organism-based, Canis lupus familiaris; details: in vivo
U-87 MG = test: Antiproliferative activity against human U-87 MG cells assessed as effect on cell viability; assay type: functional, cell-based, U-87MG ATCC
[21] = Protein binding in mouse plasma assessed as unbound fraction by ultracentrifugation
[22] = Clearance in Beagle dog at 0.5 mg/kg, iv; details: in vivo
[23] = Half-life in Beagle dog at 0.5 mg/kg, iv; assay type: ADME, organism-based, Canis lupus familiaris; details: in vivo
[24] = Metabolic stability in mouse hepatocytes assessed as intrinsic clearance measured per 10^6 cells; assay type: ADME, cell-based, Hepatocyte; details: read-out: CLH
BXPC-3 = test: Antiproliferative activity against human BXPC-3 cells assessed as effect on cell viability; assay type: functional, cell-based
[25] = Oral bioavailability in Beagle dog at 2 mg/kg administered as 1% Tween 80, 2% HPMC, 97% water/methanesulfonic acid, pH 2.0 formulation; assay type: ADME, organism-based, Canis lupus familiaris; details: in vivo
[26] = Metabolic stability in rat liver microsomes assessed as intrinsic clearance; assay type: ADME, Microsome; details: time 40 min, read-out: CLH
PRMT5/MEP50 complex = PRMT5/MEP50 complex (Homo sapiens, UniProt O14744)
Description: Inhibition of PRMT5/MEP50 (unknown origin) preincubated with compound for 24 hrs in presence of SAM and MTA followed by Histone H4 (1-21)-Lys(Biotin) peptide addition and measured after 2 hrs by MTase-Glo reagent based assay

human MDR1 (P-gp) = test: Efflux ratio of permeability across basolateral to apical side over apical to basolateral side in MDCK cells transfected with human MDR1 in absence of elacridar; details: dog
[27] = Oral bioavailability in CD-1 mouse at 5 mg/kg administered as 1% Tween 80, 2% HPMC, 97% water/methane sulfonic acid, pH 2.0 formulation; assay type: ADME, organism-based; details: in vivo
CYP3A4 = CYP3A4 (Homo sapiens, UniProt P08684); test: in vitro; details: human liver microsomes, probe midazolam
in vivo [28] = details: CD-1, mouse, iv, 1 mg/kg
[29] = target: T1, Nuclear receptor subfamily 1 group I member 2 (Homo sapiens, UniProt O75469); test: Activation of human PXR in human HepG2 cells co-transfected with CYP3A4-luciferase at 10 uM incubated for 1 day relative to control; details: hepg2, 24 h
T1 sequence (O75469 whole entry): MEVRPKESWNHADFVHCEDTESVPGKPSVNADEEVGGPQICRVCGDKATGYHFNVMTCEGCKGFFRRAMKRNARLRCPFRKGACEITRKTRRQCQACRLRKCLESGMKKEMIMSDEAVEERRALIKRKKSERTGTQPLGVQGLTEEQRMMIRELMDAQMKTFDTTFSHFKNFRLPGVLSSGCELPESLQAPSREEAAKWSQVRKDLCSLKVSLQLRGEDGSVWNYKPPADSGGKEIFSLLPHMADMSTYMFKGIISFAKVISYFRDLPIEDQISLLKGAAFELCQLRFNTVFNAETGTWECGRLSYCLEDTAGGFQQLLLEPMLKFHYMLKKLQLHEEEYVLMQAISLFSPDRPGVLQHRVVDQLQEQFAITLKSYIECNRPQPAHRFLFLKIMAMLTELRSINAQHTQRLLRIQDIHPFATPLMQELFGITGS

[30] = Half-life in CD-1 mouse at 1 mg/kg, iv; assay type: ADME, organism-based; details: in vivo
[31] = Clearance in CD-1 mouse at 1 mg/kg, iv; details: in vivo

CYP3A4, sequence (P08684 whole entry): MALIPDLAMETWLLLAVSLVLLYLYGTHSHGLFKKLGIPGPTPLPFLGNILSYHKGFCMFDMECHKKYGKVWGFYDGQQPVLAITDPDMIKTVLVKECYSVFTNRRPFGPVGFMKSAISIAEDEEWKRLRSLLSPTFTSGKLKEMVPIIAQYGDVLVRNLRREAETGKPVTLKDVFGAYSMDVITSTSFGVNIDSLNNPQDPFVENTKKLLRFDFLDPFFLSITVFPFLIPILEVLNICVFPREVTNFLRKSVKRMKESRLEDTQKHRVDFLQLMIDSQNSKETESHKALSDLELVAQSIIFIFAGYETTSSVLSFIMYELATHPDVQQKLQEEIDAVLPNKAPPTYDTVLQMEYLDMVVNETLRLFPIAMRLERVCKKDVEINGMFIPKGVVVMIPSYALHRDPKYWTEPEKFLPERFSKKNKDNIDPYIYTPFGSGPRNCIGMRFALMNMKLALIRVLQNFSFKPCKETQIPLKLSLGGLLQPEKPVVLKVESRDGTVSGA
PRMT5/MEP50 complex, sequence (O14744 whole entry): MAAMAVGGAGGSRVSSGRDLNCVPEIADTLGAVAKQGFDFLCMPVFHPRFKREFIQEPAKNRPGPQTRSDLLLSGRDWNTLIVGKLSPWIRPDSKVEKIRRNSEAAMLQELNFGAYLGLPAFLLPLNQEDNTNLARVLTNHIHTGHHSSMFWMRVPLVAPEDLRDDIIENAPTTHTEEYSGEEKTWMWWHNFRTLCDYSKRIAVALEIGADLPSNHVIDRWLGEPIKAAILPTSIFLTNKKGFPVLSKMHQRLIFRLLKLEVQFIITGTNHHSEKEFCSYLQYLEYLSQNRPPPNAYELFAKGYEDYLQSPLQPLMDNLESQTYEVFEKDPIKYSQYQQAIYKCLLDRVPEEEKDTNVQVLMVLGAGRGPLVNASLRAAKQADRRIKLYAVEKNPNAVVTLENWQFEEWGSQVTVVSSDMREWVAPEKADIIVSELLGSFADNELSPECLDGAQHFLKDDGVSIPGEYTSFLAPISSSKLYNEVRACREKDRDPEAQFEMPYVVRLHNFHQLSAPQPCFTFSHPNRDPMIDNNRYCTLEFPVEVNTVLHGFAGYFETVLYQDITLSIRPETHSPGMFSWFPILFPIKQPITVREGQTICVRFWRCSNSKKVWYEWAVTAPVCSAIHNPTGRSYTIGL
PRMT5/MEP50 complex, sequence (Q9BQA1 whole entry, further chain): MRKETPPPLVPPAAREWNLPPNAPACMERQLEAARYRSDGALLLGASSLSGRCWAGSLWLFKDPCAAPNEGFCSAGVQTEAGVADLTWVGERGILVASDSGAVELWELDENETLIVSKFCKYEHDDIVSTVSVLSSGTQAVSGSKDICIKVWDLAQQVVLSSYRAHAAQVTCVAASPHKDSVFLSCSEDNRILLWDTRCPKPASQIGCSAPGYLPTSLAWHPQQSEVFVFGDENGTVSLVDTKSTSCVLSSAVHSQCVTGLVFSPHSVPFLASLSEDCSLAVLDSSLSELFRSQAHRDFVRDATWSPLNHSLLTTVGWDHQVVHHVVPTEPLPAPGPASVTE

Structure (SMILES): Cc1cc2cc(C(=O)N(Cc3ccc(C(F)(F)F)cn3)[C@H](C)c3ncccn3)ccc2nc1N
microsomal CLint [1]: 25 µL/min/mg | Vd [2]: 1.3 L/kg | hepatocyte CLint [3]: 11 µL/min/1e6 cells | IC50 (DOHH-2): 17 nM | AUC(0-t) [4]: 1.01 µM·h | IC50 (HCT-116 [5]): 854 nM | hepatocyte CLint [6]: 9 µL/min/1e6 cells | fraction unbound [7]: 0.1 | microsomal CLint at 0.5 µM [8]: 19 µL/min/mg | Drug metabolism [9]: metabolite_detected | Drug metabolism [10]: metabolite_detected | fraction unbound [11]: 0.2 | half-life [12]: 2.1 h | IC50 (HCT-116 [13]): 40 nM | CL free [14]: 317 mL/min/kg | Vd (in vivo [15]): 1.9 L/kg | CL free [16]: 167 mL/min/kg | hepatocyte CLint [17]: 12 µL/min/1e6 cells | clearance [18]: 26.7 mL/min/kg | microsomal CLint at 0.5 µM [19]: 90 µL/min/mg | CL free [20]: 123 mL/min/kg | IC50 (U-87 MG): 65 nM | fraction unbound ([21]; plasma): 0.12 | clearance [22]: 25 mL/min/kg | half-life [23]: 1.2 h | hepatocyte CLint [24]: 18 µL/min/1e6 cells | IC50 (BXPC-3): 73 nM | bioavailability [25]: 45% | microsomal CLint at 0.5 µM [26]: 25 µL/min/mg

IC50 (HCT-116 [5]): 3210 nM | microsomal CLint at 0.5 µM [8]: 30 µL/min/mg | IC50 (HCT-116 [13]): 100 nM | CL free [14]: 96.7 mL/min/kg | Ki (PRMT5/MEP50 complex): < 0.1 nM | microsomal CLint at 0.5 µM [19]: 45 µL/min/mg | efflux ratio (human MDR1 (P-gp)): 10 | bioavailability [27]: 95% | inhibition at 30 min, 10 µM (CYP3A4): < 20% | fraction unbound ([21]; mouse plasma): 0.12 | Vd (in vivo [28]): 1.5 L/kg | Activity [29]: < 20% | half-life [30]: 2 h | clearance [31]: 11.7 mL/min/kg
Structure (SMILES): CCN(Cc1ccc(C(F)(F)F)cn1)C(=O)c1ccc2nc(N)c3c(c2c1)COC3

IC50 (HCT-116 [5]): 8790 nM | microsomal CLint at 0.5 µM [8]: 14 µL/min/mg | IC50 (HCT-116 [13]): 426 nM | CL free [14]: 40 mL/min/kg | Ki (PRMT5/MEP50 complex): 0.1 nM | microsomal CLint at 0.5 µM [19]: 19 µL/min/mg | efflux ratio (human MDR1 (P-gp)): 23 | bioavailability [27]: 64% | inhibition at 30 min, 10 µM (CYP3A4): < 20% | fraction unbound ([21]; mouse plasma): 0.21 | Vd (in vivo [28]): 0.9 L/kg | Activity [29]: < 20% | half-life [30]: 2.2 h | clearance [31]: 8.33 mL/min/kg
Structure (SMILES): CN(Cc1ccc(C(F)(F)F)cn1)C(=O)c1ccc2nc(N)c3c(c2c1)COC3
